From patent publication US9133492B2, “Kanamycin compound, kanamycin-producing Streptomyces species bacterium, and method of producing kanamycin” (iNtRON Biotechnology, Inc., priority 2010, dated 2015)
≈ marks a conversion by molar mass, not a printed value. Like-named read-outs stand apart in the source and are kept apart here.

Legend:
[1] = test system: E. coli ATCC 25922(Kan^S); assay: microbe, parasite or virus in culture; assay type: cell-based, Escherichia coli
Method: (§1) In one embodiment of the present invention, antibacterial spectra against kanamycin intermediates and analogs produced by the present invention were measured. Typical gram-negative strains (E. coli and Pseudomonas aeruginosa) and four clinically isolated strains were employed to check the antibacterial spectra (See table 2).
(§2) To check the antibacterial spectra of kanamycin biosynthetic intermediates and their analogs, a total six kinds of Gram-negative bacteria such as kanamycin-sensitive (Kan^S) E. coli ATCC 25922, kanamycin-resistant (Kan^R) Pseudomonas aeruginosa ATCC 27853, Kan^S E. coli CCARM (Culture Collection of Antimicrobial Resistant Microbes, Korea) 1A020, Kan^R E. coli CCARM 1A023, amikacin-sensitive (Amk^S) P. aeruginosa CCARM 2206, and amikacin-resistance (Amk^R) P. aeruginosa CCARM 2178 were used.
(§3) Minimum inhibitory concentrations (MICs) of various kanamycin-related pseudodi- and tri-saccharides and AHBA conjugated kanamycin analogs (except for compounds 16, 18, 19, and 20) were measured by broth microdilution according to the Clinical and Laboratory Standard Institute (CLSI, formerly NCCLS). As described in Example 2, gram-negative E. coli strains, P. aeruginosa strains, and clinically isolated strains were incubated in Mueller-Hinton broth (BD Science) at 30° C. […] An aliquot of water was used as a negative control group. The growth of the strains was observed using the Labsystems Bioscreen C, and the minimum concentrations of the aminoglycoside diluted in the broth medium to inhibit the growth of the bacterial strains were measured.

[2] = test system: P. aeruginosa ATCC 27853(Kan^R); assay: microbe, parasite or virus in culture; assay type: cell-based; details: Pseudomonas aeruginosa, ATCC27853
Method: as §1, §2, §3

[3] = test system: E. coli CCARM 1A020(Kan^S); assay: MIC by broth microdilution (CLSI), antibacterial spectra; assay type: cell-based, Escherichia coli
Method: as §1, §2, §3

[4] = test system: E. coli CCARM 1A023(Kan^R); assay: as above; assay type: cell-based, Escherichia coli
Method: as §1, §2, §3

[5] = test system: P. aeruginosa CCARM 2178(Amk^R); assay: as above; assay type: cell-based, Pseudomonas aeruginosa; details: for MIC / activity: clinically isolated amikacin-resistant P. aeruginosa strain
Method: as §1, §2, §3

[6] = test system: P. aeruginosa CCARM 2206(Amk^S); assay: as above; assay type: cell-based, Pseudomonas aeruginosa
Method: as §1, §2, §3

[7] = test system: Gram-negative bacteria (E. coli and Pseudomonas aeruginosa test strains); assay: Antibacterial spectra, comparison across test strains; assay type: cell-based; details: for antibacterial activity, 6′-amino vs 6′-hydroxy pseudodisaccharides: against kanamycin-sensitive E. coli strains, compared with 6′-hydroxy derivatives 3 and 9; for antibacterial activity, 3″-amino vs 3″-hydroxy derivatives: against the test strains, compared with corresponding 3″-hydroxy derivatives 5, 13, 14 and 11; for antibacterial activity, 6′-amino vs 6′-hydroxy pseudotrisaccharides: against kanamycin-sensitive test strains, compared with compounds 6 and 12
Method: as §1, §2, §3

[8] = test system: S. venezuelae; assay: Resistance of S. venezuelae strains to kanamycin; assay type: cell-based, Streptomyces venezuelae
Method: As expected, the recombinant heterologous strain expressing kanA-kanB-kanK (DOS strain) produced compound 1 (21.4 μM) (FIG. 2A). To confer resistance to kanamycin in S. venezuelae without modifying the aminoglycoside structure, three resistance genes gtmF-gtmK-gtmL from the gentamicin gene cluster were introduced into the recombinant heterologous strain. Transformants expressing these genes were resistant to >10.0 mg/ml of the commercially available kanamycin compared to 1.0 μg/ml in control strains. These resistance genes were expressed together with the kanamycin biosynthetic genes in the heterologous host in subsequent experiments.

[9] = Pseudomonas aeruginosa, CCARM2178
[10] = Pseudomonas aeruginosa, CCARM2206
[11] = E. coli ATCC 25922, kanamycin-sensitive typical strain
[12] = E. coli CCARM 1A020, kanamycin-sensitive clinically isolated strain
[13] = E. coli CCARM 1A023, kanamycin-resistant clinically isolated strain
[14] = P. aeruginosa CCARM 2178, amikacin-resistant clinically isolated strain
[15] = P. aeruginosa CCARM 2206, amikacin-sensitive clinically isolated strain
[16] = Escherichia coli, E. coli CCARM 1A023, kanamycin-resistant clinically isolated strain, read-out: MIC
[17] = Pseudomonas aeruginosa, CCARM2178, P. aeruginosa CCARM 2178, amikacin-resistant clinically isolated strain, read-out: MIC
[18] = Pseudomonas aeruginosa, CCARM2206, P. aeruginosa CCARM 2206, amikacin-sensitive clinically isolated strain, read-out: MIC

| Compound | MIC [1, 11] | MIC [3, 12] | MIC [4, 13] | MIC [5, 14] | MIC [6, 15] | also measured |
| --- | --- | --- | --- | --- | --- | --- |
| N[C@H]1[C@@H](O[C@H]2[C@H](O)[C@@H](O)[C@H](N)C[C@@H]2N)O[C@H](CO)[C@@H](O)[C@@H]1O [Compound 3, paromamine] | – | – | – | – | – | MIC ([1]; Escherichia coli, ATCC25922): 128 µg/mL (≈ 396 µM); MIC [2]: > 128 µg/mL; MIC ([3]; Escherichia coli): 128 µg/mL (≈ 396 µM); MIC ([4]; Escherichia coli): > 128 µg/mL; MIC [5, 9]: > 128 µg/mL; MIC [6, 10]: > 128 µg/mL |
| NC[C@H]1O[C@H](O[C@H]2[C@H](O)[C@@H](O)[C@H](N)C[C@@H]2N)[C@H](N)[C@@H](O)[C@@H]1O [Compound 4, neamine] | – | – | – | – | – | MIC ([1]; Escherichia coli, ATCC25922): 64 µg/mL (≈ 199 µM); MIC [2]: > 128 µg/mL; MIC ([3]; Escherichia coli): 64 µg/mL (≈ 199 µM); MIC ([4]; Escherichia coli): > 128 µg/mL; MIC [5, 9]: > 128 µg/mL; MIC [6, 10]: 128 µg/mL (≈ 397 µM); antibacterial activity, 6′-amino vs 6′-hydroxy pseudodisaccharides [7]: more active |
| N[C@H]1[C@@H](O[C@H]2[C@H](O)[C@@H](O[C@H]3O[C@H](CO)[C@@H](O)[C@H](O)[C@H]3O)[C@H](N)C[C@@H]2N)O[C@H](CO)[C@@H](O)[C@@H]1O [Compound 5, 3″-deamino-3″-hydroxykanamycin C] | 128 µg/mL (≈ 264 µM) | NA (NA represents no activity at 128 μg/mL) | NA (NA represents no activity at 128 μg/mL) | NA (NA represents no activity at 128 μg/mL) | NA (NA represents no activity at 128 μg/mL) | – |
| N[C@@H]1[C@@H](O)[C@@H](O[C@@H]2[C@@H](O)[C@H](O[C@H]3O[C@H](CO)[C@@H](O)[C@H](O)[C@H]3N)[C@@H](N)C[C@H]2N)O[C@H](CO)[C@H]1O [Compound 6, kanamycin C] | 16 µg/mL (≈ 33 µM) | 16 µg/mL (≈ 33 µM) | NA (NA represents no activity at 128 μg/mL) | NA (NA represents no activity at 128 μg/mL) | 64 µg/mL (≈ 132 µM) | antibacterial activity, 3″-amino vs 3″-hydroxy derivatives [7]: increased activity |
| NC[C@H]1O[C@H](O[C@H]2[C@H](O)[C@@H](O[C@H]3O[C@H](CO)[C@@H](O)[C@H](N)[C@H]3O)[C@H](N)C[C@@H]2N)[C@H](N)[C@@H](O)[C@@H]1O [Compound 7, kanamycin B, reference compound] | 2 µg/mL (≈ 4.14 µM) | 4 µg/mL (≈ 8.27 µM) | NA (NA represents no activity at 128 μg/mL) | NA (NA represents no activity at 128 μg/mL) | 32 µg/mL (≈ 66.2 µM) | antibacterial activity, 6′-amino vs 6′-hydroxy pseudotrisaccharides [7]: more active; antibacterial activity, 3″-amino vs 3″-hydroxy derivatives [7]: increased activity |
| NC[C@@H]1O[C@@H](O[C@H]2[C@H](O)[C@@H](O[C@H]3O[C@H](CO)[C@@H](O)[C@H](N)[C@H]3O)[C@H](N)C[C@@H]2N)[C@@H](O)[C@H](O)[C@H]1O [Compound 8, kanamycin A, reference compound] | 2 µg/mL (≈ 4.13 µM) | 4 µg/mL (≈ 8.26 µM) | NA (NA represents no activity at 128 μg/mL) | NA (NA represents no activity at 128 μg/mL) | 16 µg/mL (≈ 33 µM) | antibacterial activity, 6′-amino vs 6′-hydroxy pseudotrisaccharides [7]: more active; antibacterial activity, 3″-amino vs 3″-hydroxy derivatives [7]: increased activity |
| NC1CC(N)C(OC2OC(CO)C(O)C(O)C2O)C(O)C1O (stereo not shown) [Compound 9, 2′-deamino-2′-hydroxyparomamine] | – | 128 µg/mL (≈ 395 µM) | NA (NA represents no activity at 128 μg/mL) | NA (NA represents no activity at 128 μg/mL) | NA (NA represents no activity at 128 μg/mL) | – |
| NCC1OC(OC2C(N)CC(N)C(O)C2O)C(O)C(O)C1O (stereo not shown) [Compound 10, 2′-deamino-2′-hydroxyneamine] | 64 µg/mL (≈ 198 µM) | 64 µg/mL (≈ 198 µM) | NA (NA represents no activity at 128 μg/mL) | NA (NA represents no activity at 128 μg/mL) | 128 µg/mL (≈ 396 µM) | antibacterial activity, 6′-amino vs 6′-hydroxy pseudodisaccharides [7]: more active |
| N[C@@H]1C[C@H](N)[C@@H](O[C@H]2O[C@H](CO)[C@@H](O)[C@H](O)[C@H]2O)C(O)[C@H]1O[C@H]1O[C@H](CO)[C@@H](O)[C@H](O)[C@H]1O (stereo partly shown) [Compound 11, 3″-deamino-3″-hydroxykanamycin X] | – | NA (NA represents no activity at 128 μg/mL) | NA (NA represents no activity at 128 μg/mL) | NA (NA represents no activity at 128 μg/mL) | NA (NA represents no activity at 128 μg/mL) | – |
| N[C@@H]1[C@@H](O)[C@@H](O[C@@H]2[C@@H](O)[C@H](O[C@H]3O[C@H](CO)[C@@H](O)[C@H](O)[C@H]3O)[C@@H](N)C[C@H]2N)O[C@H](CO)[C@H]1O [Compound 12, kanamycin X] | 16 µg/mL (≈ 33 µM) | 16 µg/mL (≈ 33 µM) | NA (NA represents no activity at 128 μg/mL) | NA (NA represents no activity at 128 μg/mL) | 64 µg/mL (≈ 132 µM) | antibacterial activity, 3″-amino vs 3″-hydroxy derivatives [7]: increased activity |
| NC[C@H]1O[C@H](O[C@H]2[C@H](O)[C@@H](O[C@H]3O[C@H](CO)[C@@H](O)[C@H](O)[C@H]3O)[C@H](N)C[C@@H]2N)[C@H](N)[C@@H](O)[C@@H]1O [Compound 13, 3″-deamino-3″-hydroxykanamycin B] | – | 128 µg/mL (≈ 264 µM) | NA (NA represents no activity at 128 μg/mL) | NA (NA represents no activity at 128 μg/mL) | NA (NA represents no activity at 128 μg/mL) | – |
| NCC[C@H](O)C(=O)N[C@@H]1C[C@H](N)[C@@H](O[C@H]2O[C@H](CN)[C@@H](O)[C@H](O)[C@H]2O)[C@H](O)[C@H]1O[C@H]1O[C@H](CO)[C@@H](O)[C@H](N)[C@H]1O [Compound 15, amikacin, reference compound] | – | – | – | – | – | MIC ([1]; Escherichia coli, ATCC25922): 128 µg/mL (≈ 219 µM); MIC [2]: 64 µg/mL (≈ 109 µM); MIC ([3]; Escherichia coli): 128 µg/mL (≈ 219 µM); MIC [4, 16]: 32 µg/mL (≈ 54.6 µM); MIC [5, 17]: > 128 µg/mL; MIC / activity [5]: no activity; MIC [6, 18]: ≤ 0.25 µg/mL |
| NCC[C@H](O)C(=O)N[C@@H]1C[C@H](N)[C@@H](O[C@H]2O[C@H](CO)[C@@H](O)[C@H](O)[C@H]2O)[C@H](O)[C@H]1O[C@H]1O[C@H](CO)[C@@H](O)[C@H](N)[C@H]1O [Compound 17, 1-N-AHBA-kanamycin X] | – | – | – | – | – | MIC ([1]; Escherichia coli, ATCC25922): 16 µg/mL (≈ 27.3 µM); MIC [2]: 16 µg/mL (≈ 27.3 µM); MIC ([3]; Escherichia coli, E. coli CCARM 1A020, kanamycin-sensitive clinically isolated strain, read-out: MIC): 32 µg/mL (≈ 54.6 µM); MIC [4, 16]: 16 µg/mL (≈ 27.3 µM); MIC [5, 17]: 64 µg/mL (≈ 109 µM); antibacterial effect ([5]; amikacin-resistant P. aeruginosa): antibacterial effect; MIC / activity [5]: ~64; MIC [6, 18]: 0.25 µg/mL (≈ 0.426 µM); antibacterial activity ([7]; against all kanamycin and amikacin-resistant test strains): strong antibacterial activity; antibacterial activity compared with amikacin (compound 15) ([7]; against all the test strains): improved antibacterial activity |
| NC[C@H]1O[C@H](O[C@H]2[C@H](O)[C@@H](O[C@H]3O[C@H](CO)[C@@H](O)[C@H](N)[C@H]3O)[C@H](N)C[C@@H]2N)[C@H](O)[C@@H](O)[C@@H]1O [kanamycin] | – | – | – | – | – | kanamycin concentration the strain is resistant to ([8]; S. venezuelae transformants expressing resistance genes gtmF-gtmK-gtmL): > 10.0 mg/mL; kanamycin concentration the strain is resistant to ([8]; control strains): 0.001 mg/mL |
| kanamycin D [Compound 14] | – | 128 µg/mL | NA (NA represents no activity at 128 μg/mL) | NA (NA represents no activity at 128 μg/mL) | NA (NA represents no activity at 128 μg/mL) | – |
